Literature values in patent US11708332B2, “Human plasma kallikrein inhibitors” (BioCryst Pharmaceuticals, Inc., priority 2014, dated 2023).

Experiments:
[1] = tested on: hereditary angioedema (HAE)
[2] = tested on: lipopolysaccharide (LPS)- or bacterial-induced sepsis; settings: LPS- or bacterial-induced sepsis in animals
[3] = tested on: middle cerebral artery occlusion (MCAO); settings: mouse model of MCAO

For NC(N)=NCCC[C@@H](N)C(=O)N[C@@H](CCCN=C(N)N)C(=O)N1CCC[C@H]1C(=O)N1C[C@H](O)C[C@H]1C(=O)NCC(=O)N[C@@H](Cc1cccs1)C(=O)N[C@@H](CO)C(=O)N1Cc2ccccc2C[C@@H]1C(=O)N1[C@H](C(=O)N[C@@H](CCCN=C(N)N)C(=O)O)C[C@@H]2CCCC[C@@H]21 [Icatibant], the “effectiveness in treating HAE” value ([1]; HAE) is listed as “effective”.

In the case of H-D-Pro-Phe-Arg-chloromethylketone, the lesions [2] is listed as “reduce”.

In the case of ecallantide [DX-88], the “edema in patients with hereditary angioedema (HAE)” value ([1]; patients with HAE) is listed as “alleviates edema”.

B1: Cl-inhibitor: "Cl-inhibitor reduced infarct size in a mouse model of middle cerebral artery occlusion (MCAO)" (protein, UniProt P05155 23-500, looked up)
Plasma protease C1 inhibitor: NPNATSSSSQDPESLQDRGEGKVATTVISKMLFVEPILEVSSLPTTNSTTNSATKITANTTDEPTTQPTTEPTTQPTIQPTQPTTQLPTDSPTQPTTGSFCPGPVTLCSDLESHSTEAVLGDALVDFSLKLYHAFSAMKKVETNMAFSPFSIASLLTQVLLGAGENTKTNLESILSYPKDFTCVHQALKGFTTKGVTSVSQIFHSPDLAIRDTFVNASRTLYSSSPRVLSNNSDANLELINTWVAKNTNNKISRLLDSLPSDTRLVLLNAIYLSAKWKTTFDPKKTRMEPFHFKNSVIKVPMMNSKKYPVAHFIDQTLKAKVGQLQLSHNLSLVILVPQNLKHRLEDMEQALSPSVFKAIMEKLEMSKFQPTLLTLPRIKVTTSQDMLSIMEKLEFFDFSYDLNLCGLTEDPDLQVSAMQHQTVLELTETGVEAAAASAISVARTLLVFEVQQPFLFVLWDQQHKFPVFMGRVYDPRA
For B1, the infarct size [3] is given as “reduced”.

B2: C1-inhibitor: "a physiological inhibitor (C1-inhibitor)" (protein, UniProt P05155 23-500, looked up)
Plasma protease C1 inhibitor: B1 Plasma protease C1 inhibitor
In the case of B2, the lesions [2] is given as “reduce”.
